What was measured:
4T1 = assay: Antiproliferative activity against 4T1 cells (unknown origin); type: functional, cell-based; settings: Mus musculus
MDA-MB-231 = assay: Antiproliferative activity against MDA-MB-231 cells (unknown origin); type: functional, cell-based; settings: Homo sapiens
[1] = target: T1, Epidermal growth factor receptor (Homo sapiens, UniProt P00533); assay: Inhibition of human EGFR
[2] = target: Proto-oncogene tyrosine-protein kinase Src (Homo sapiens, UniProt P12931); assay: Inhibition of Src (unknown origin)
Proto-oncogene tyrosine-protein kinase Src, sequence (P12931 2-536 limits assumed): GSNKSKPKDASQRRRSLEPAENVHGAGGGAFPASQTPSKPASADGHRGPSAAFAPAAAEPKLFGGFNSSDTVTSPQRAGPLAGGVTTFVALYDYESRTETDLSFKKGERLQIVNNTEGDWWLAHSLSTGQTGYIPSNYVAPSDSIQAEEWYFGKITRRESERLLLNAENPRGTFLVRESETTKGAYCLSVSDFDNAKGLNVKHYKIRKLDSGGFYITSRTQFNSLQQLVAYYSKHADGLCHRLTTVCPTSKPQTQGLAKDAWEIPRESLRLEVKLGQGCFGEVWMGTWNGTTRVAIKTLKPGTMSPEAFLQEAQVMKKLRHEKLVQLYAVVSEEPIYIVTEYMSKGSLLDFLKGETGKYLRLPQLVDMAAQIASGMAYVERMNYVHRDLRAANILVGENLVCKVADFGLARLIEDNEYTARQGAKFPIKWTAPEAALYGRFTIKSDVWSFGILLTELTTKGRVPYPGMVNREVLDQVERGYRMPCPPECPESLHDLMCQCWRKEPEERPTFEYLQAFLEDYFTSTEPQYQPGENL

Aurora kinase A = Aurora kinase A (Homo sapiens, UniProt O14965); assay: Inhibition of AURA (unknown origin)
Aurora kinase A, sequence (O14965 whole entry): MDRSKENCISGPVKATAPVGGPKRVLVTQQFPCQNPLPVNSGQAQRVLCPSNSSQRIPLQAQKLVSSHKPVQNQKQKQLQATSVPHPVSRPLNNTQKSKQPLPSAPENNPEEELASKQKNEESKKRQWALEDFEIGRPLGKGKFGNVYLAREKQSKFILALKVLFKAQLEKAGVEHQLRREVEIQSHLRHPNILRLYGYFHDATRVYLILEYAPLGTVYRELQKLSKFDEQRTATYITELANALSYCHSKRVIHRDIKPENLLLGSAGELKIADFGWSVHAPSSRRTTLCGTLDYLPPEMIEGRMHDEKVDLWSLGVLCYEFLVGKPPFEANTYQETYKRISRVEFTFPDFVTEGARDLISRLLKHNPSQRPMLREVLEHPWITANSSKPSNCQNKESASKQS

[3] = Antiproliferative activity against human C643 cells harboring Ras mutation assessed as cell growth inhibition at 5 uM by cell counting assay; type: functional
BCPAP = assay: Antiproliferative activity against human BCPAP cells harboring BRAF V600E mutation assessed as cell growth inhibition at 5 uM by cell counting assay; type: functional
FTC-133 = assay: Antiproliferative activity against human FTC-133 cells harboring PTEN mutation assessed as cell growth inhibition at 5 uM by cell counting assay; type: functional
TPC1 = assay: Antiproliferative activity against human TPC1 cells harboring RET/PTC mutation assessed as cell growth inhibition at 5 uM by cell counting assay; type: functional
[4] = target: Serine/threonine-protein kinase mTOR (Homo sapiens, UniProt P42345); assay: Inhibition of mTOR (unknown origin) by ELISA based kinase assay
[5] = Antiproliferative activity against human HTh7 cells harboring Ras mutation assessed as cell growth inhibition at 5 uM by cell counting assay; type: functional
SW-1736 = assay: Antiproliferative activity against human SW-1736 cells harboring BRAF V600E mutation assessed as cell growth inhibition at 5 uM by cell counting assay; type: functional
[6] = Antiproliferative activity against human HTh104 cells harboring BRAF V600E mutation assessed as cell growth inhibition at 5 uM by cell counting assay; type: functional
HCT-116 = assay: Antiproliferative activity against human HCT-116 cells at 10 uM by MTT assay; type: functional, cell-based
A-375 = assay: Antiproliferative activity against human A-375 cells at 10 uM by MTT assay; type: functional, cell-based
MCF7 = assay: Antiproliferative activity against human MCF7 cells at 10 uM by MTT assay; type: functional, cell-based
COLO 205 = assay: Antiproliferative activity against human COLO 205 cells at 10 uM by MTT assay; type: functional, cell-based
A549 = assay: Antiproliferative activity against human A549 cells at 10 uM by MTT assay; type: functional, cell-based
LoVo = assay: Antiproliferative activity against human LoVo cells at 10 uM by MTT assay; type: functional, cell-based
[7] = target: Serine/threonine-protein kinase B-raf (Homo sapiens, UniProt P15056, V600E); assay: Inhibition of human BRAF V600E mutant
[8] = target: Proto-oncogene tyrosine-protein kinase receptor Ret (Homo sapiens, UniProt P07949); assay: Inhibition of RET (unknown origin) by invitro kinase assay
Proto-oncogene tyrosine-protein kinase receptor Ret (Homo sapiens, UniProt P07949), sequence (P07949 whole entry): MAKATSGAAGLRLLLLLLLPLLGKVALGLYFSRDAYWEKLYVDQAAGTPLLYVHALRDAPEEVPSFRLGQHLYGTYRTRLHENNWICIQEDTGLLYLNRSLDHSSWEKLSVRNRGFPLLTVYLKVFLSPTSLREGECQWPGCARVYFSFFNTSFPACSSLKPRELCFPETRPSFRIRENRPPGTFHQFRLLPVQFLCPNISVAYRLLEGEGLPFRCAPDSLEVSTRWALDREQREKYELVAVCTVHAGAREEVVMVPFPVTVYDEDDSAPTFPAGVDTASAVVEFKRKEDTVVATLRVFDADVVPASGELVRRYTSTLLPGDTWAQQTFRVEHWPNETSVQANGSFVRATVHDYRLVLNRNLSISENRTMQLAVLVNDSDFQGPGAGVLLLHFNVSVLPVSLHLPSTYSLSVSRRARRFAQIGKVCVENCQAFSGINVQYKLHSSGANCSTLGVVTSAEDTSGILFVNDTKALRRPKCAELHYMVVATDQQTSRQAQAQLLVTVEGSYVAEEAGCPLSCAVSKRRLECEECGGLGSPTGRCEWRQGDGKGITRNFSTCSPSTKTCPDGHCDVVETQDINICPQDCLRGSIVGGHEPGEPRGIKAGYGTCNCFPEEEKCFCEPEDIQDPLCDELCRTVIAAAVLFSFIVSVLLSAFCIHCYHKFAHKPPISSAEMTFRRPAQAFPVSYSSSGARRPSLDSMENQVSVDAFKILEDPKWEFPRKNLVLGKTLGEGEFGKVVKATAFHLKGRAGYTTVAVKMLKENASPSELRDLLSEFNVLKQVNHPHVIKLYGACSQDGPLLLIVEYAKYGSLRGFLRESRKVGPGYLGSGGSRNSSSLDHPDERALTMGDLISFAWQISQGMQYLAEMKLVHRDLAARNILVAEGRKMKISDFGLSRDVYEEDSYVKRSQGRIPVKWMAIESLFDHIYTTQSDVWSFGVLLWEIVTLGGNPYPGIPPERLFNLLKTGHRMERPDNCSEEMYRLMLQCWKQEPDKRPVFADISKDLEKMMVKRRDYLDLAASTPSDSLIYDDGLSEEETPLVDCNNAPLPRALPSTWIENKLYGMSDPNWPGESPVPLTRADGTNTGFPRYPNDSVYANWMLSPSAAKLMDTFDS

[9] = target: Proto-oncogene tyrosine-protein kinase receptor Ret (Homo sapiens, UniProt P07949, V804M); assay: Inhibition of RET V804M mutant (unknown origin) by invitro kinase assay
Proto-oncogene tyrosine-protein kinase receptor Ret (Homo sapiens, UniProt P07949, V804M), sequence (P07949 29-1114 V804M limits assumed): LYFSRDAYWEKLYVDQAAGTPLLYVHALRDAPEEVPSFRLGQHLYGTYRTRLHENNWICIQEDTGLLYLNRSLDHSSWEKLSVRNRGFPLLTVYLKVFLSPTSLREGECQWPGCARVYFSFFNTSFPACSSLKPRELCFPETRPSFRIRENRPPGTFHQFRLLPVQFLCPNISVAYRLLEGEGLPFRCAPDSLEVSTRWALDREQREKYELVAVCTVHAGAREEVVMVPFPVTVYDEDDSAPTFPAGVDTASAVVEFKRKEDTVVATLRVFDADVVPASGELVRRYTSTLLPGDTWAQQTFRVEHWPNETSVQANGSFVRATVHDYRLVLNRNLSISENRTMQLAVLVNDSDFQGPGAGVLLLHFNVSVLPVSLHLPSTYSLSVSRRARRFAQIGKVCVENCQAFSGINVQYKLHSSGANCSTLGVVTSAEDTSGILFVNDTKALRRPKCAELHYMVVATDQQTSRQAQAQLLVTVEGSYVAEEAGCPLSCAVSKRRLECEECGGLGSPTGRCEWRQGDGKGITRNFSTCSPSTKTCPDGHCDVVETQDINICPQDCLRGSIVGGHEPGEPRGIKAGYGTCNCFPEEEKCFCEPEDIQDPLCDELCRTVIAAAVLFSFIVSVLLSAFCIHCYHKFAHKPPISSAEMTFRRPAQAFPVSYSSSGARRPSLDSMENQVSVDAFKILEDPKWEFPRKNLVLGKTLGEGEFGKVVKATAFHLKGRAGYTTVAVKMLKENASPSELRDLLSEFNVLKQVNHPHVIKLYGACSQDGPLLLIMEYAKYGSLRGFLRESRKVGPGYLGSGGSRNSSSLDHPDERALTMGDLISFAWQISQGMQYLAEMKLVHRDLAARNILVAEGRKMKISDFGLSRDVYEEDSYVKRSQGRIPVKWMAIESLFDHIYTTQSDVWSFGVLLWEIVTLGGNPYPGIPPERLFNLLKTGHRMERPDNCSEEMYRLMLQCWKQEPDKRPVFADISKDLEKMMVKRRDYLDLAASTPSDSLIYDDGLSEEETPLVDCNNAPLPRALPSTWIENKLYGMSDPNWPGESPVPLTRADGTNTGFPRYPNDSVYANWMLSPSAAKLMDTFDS

[10] = target: Vascular endothelial growth factor receptor 2 (Homo sapiens, UniProt P35968); assay: Inhibition of VEGFR2 (unknown origin) by invitro kinase assay
DU-145 = assay: Antiproliferative activity against human DU-145 cells assessed as growth inhibition and measured after 96 hrs by micro plate reader analysis; type: functional, cell-based; settings: DU-145, 96 h
MES-SA = assay: Antiproliferative activity against human MES-SA cells assessed as growth inhibition and measured after 96 hrs by micro plate reader analysis; type: functional, cell-based
[11] = target: T1, Epidermal growth factor receptor; assay: Inhibition of human EGFR phosphorylation by invitro enzyme assay

T1 sequence (P00533 whole entry): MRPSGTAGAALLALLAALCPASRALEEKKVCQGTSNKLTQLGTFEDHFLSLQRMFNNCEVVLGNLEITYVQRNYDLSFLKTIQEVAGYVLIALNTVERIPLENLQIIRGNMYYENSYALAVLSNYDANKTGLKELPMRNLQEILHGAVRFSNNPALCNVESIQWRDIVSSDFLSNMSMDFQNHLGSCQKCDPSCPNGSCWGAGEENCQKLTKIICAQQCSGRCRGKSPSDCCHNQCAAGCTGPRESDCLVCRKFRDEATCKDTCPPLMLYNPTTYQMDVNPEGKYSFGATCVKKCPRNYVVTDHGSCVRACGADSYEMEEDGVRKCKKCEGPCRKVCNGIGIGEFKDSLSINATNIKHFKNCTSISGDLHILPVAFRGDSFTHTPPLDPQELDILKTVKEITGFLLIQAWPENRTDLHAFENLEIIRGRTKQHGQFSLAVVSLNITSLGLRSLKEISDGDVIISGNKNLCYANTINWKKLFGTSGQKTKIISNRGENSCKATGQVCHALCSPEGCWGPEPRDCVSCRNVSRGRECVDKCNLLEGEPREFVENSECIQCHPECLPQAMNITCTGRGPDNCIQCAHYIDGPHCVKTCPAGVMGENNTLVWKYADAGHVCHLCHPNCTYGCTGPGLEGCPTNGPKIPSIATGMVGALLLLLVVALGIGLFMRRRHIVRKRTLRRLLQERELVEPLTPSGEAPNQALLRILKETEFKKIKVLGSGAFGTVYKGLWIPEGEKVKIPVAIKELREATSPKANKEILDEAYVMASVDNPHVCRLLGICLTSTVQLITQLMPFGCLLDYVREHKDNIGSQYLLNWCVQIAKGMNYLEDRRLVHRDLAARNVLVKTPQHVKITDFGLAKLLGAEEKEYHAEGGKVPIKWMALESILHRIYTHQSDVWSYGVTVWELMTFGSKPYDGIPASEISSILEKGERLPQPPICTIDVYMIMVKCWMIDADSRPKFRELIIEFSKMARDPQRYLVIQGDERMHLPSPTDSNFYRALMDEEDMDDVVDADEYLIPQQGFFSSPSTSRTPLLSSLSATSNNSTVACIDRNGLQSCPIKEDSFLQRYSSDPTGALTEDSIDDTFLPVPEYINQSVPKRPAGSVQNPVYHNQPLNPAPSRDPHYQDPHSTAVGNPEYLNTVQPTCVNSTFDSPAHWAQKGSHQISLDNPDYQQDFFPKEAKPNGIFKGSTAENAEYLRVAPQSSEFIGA

Question: What does the source list for `CN(CCOC(=O)c1ccc(C(=O)Nc2ncnc3c2c(-c2ccc(Cl)cc2)nn3C(C)(C)C)nc1)Cc1ccc(C(=O)Nc2ccc3ncnc(Nc4cccc(Cl)c4)c3c2)cc1`?
Answer: IC50 (4T1): 5.6 µM; IC50 (MDA-MB-231): 7.34 µM; IC50 [1]: 0.61 µM; IC50 [2]: 1.1 µM

Question: Which IC50 (Aurora kinase A) does the source give for `Cc1cc(S(=O)(=O)Nc2ccc(/C=C3\SC(=O)N(CC4(C)CCCCC4)C3=O)cc2)ccc1[N+](=O)[O-]` here?
Answer: 0.035 µM

Question: And the GI50 [3]?
Answer: 4.51 µM

Question: What about the GI50 (BCPAP) of the same compound?
Answer: 3.79 µM

Question: And the GI50 (FTC-133)?
Answer: 5.9 µM

Question: What about the GI50 (TPC1) of the same compound?
Answer: 7.26 µM

Question: And the IC50 [4]?
Answer: 8.23 µM

Question: What about the GI50 [5] of the same compound?
Answer: 1.36 µM

Question: And the GI50 (SW-1736)?
Answer: 4.21 µM

Question: What about the GI50 [6] of the same compound?
Answer: 3.37 µM

Question: Which IC50 (HCT-116) does the source give for `CN(c1nc(-c2cnc(N)nc2)nc(N2CCOCC2)n1)C1CCN(C(=O)c2ccccc2)CC1` here?
Answer: 0.11 µM

Question: What about the IC50 (A-375) of the same compound?
Answer: 0.1 µM

Question: What about the IC50 (MCF7) of the same compound?
Answer: 0.5 µM

Question: And the IC50 (COLO 205)?
Answer: 0.09 µM

Question: And the IC50 (A549)?
Answer: 0.09 µM

Question: What about the IC50 (LoVo) of the same compound?
Answer: 0.08 µM

Question: And the IC50 [7]?
Answer: 0.118 µM

Question: What does the source list for `O=C(Cc1ccc(-n2cnc3cc(-c4ccsc4)ccc32)cc1)Nc1cccc(C(F)(F)F)c1`?
Answer: IC50 [8]: < 0.001 µM; IC50 [9]: < 0.001 µM; IC50 [10]: < 0.001 µM

Question: Which results are given for `COc1cccc(-c2cc(=O)c3ccccc3o2)c1NC(=O)OCCOC(=O)NCCN(C)CCN/N=N/c1ccc2c(Nc3cccc(Cl)c3)ncnc2c1`?
Answer: IC50 (DU-145): 11.3 µM; IC50 (MES-SA): 24.5 µM; IC50 [11]: 0.102 µM
